Data: ChEMBL document CHEMBL1143807, “Design and synthesis of oxime ethers of alpha-acyl-beta-phenylpropanoic acids as PPAR dual agonists” (Bioorg Med Chem Lett, 2007)

Experiments:
[1] = tested on: Mus musculus; assay: Decrease in plasma triglyceride level in db/db mouse at 1 mg/kg, po; type: functional; set-up: scale not given: the % may be the effect or the level left
[2] = biological target: T1, Peroxisome proliferator-activated receptor gamma (Homo sapiens, UniProt P37231)
T1 sequence (P37231 whole entry): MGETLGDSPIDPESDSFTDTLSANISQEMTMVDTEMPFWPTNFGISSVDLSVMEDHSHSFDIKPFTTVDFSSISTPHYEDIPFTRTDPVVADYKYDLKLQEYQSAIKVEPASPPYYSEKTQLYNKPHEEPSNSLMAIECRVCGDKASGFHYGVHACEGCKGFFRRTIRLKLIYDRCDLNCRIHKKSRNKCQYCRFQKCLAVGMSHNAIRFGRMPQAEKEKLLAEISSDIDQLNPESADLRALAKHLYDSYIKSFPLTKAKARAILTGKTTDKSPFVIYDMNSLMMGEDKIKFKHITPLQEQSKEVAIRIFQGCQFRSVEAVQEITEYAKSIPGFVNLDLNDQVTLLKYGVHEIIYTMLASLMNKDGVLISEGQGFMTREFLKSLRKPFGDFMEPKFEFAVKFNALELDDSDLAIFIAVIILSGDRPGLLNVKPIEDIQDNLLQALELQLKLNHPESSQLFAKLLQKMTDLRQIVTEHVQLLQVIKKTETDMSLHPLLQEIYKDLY
Description: Agonist activity at human PPARgamma in HepG2 cells by PPAR-GAL4 transactivation assay

[3] = tested on: Mus musculus; assay: Decrease in plasma glucose level in db/db mouse at 1 mg/kg, po; type: functional; set-up: scale not given: the % may be the effect or the level left
[4] = biological target: T2, Peroxisome proliferator-activated receptor alpha (Homo sapiens, UniProt Q07869); assay: Agonist activity at human PPARalpha in HepG2 cells by PPAR-GAL4 transactivation assay; type: functional, cell-based
T2 sequence (Q07869 whole entry): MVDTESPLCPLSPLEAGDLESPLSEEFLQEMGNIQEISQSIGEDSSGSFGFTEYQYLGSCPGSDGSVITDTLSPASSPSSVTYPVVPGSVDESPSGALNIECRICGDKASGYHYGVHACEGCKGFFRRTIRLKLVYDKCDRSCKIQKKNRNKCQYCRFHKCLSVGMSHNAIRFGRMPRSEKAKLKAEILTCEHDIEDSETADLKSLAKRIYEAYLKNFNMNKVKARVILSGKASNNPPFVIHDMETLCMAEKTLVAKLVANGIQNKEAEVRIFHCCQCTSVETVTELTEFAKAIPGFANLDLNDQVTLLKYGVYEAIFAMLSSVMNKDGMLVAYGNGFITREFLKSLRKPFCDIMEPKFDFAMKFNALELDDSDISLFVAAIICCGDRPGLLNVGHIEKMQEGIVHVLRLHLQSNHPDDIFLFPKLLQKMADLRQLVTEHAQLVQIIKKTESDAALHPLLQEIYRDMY

[5] = tested on: Mus musculus; assay: Decrease in plasma triglyceride level in db/db mouse at 10 mg/kg, po; type: functional; set-up: scale not given: the % may be the effect or the level left
[6] = tested on: Mus musculus; assay: Decrease in plasma glucose level in db/db mouse at 10 mg/kg, po; type: functional; set-up: scale not given: the % may be the effect or the level left
[7] = AUC (0-24 hrs) in Sprague-Dawley rat at 10mg/kg, po; type: ADME, organism-based; set-up: dose 10 mg/kg, time < 24 hr, route oral; conditions: plasma
[8] = Tmax in Sprague-Dawley rat at 10 mg/kg, po; type: ADME, organism-based; set-up: dose 10 mg/kg, route oral; conditions: in vivo
[9] = Half life in Sprague-Dawley rat at 10 mg/kg, po; type: ADME, organism-based; set-up: dose 10 mg/kg, route oral; conditions: in vivo
[10] = tested on: Mus musculus; assay: Decrease in plasma triglyceride level in db/db mouse at 0.1 mg/kg, po; type: functional; set-up: scale not given: the % may be the effect or the level left
[11] = Clearance in Sprague-Dawley rat at 5 mg/kg, iv; type: ADME, organism-based; set-up: dose 5 mg/kg, route intravenous; conditions: in vivo
[12] = Cmax in Sprague-Dawley rat at 10 mg/kg, po; type: ADME, organism-based; set-up: dose 10 mg/kg, route oral; conditions: in vivo
[13] = Volume of distribution in Sprague-Dawley rat at 5 mg/kg, iv; type: ADME, organism-based; set-up: dose 5 mg/kg, route intravenous; conditions: in vivo, read-out: Vdss
[14] = Half life in Sprague-Dawley rat at 5 mg/kg, iv; type: ADME, organism-based; set-up: dose 5 mg/kg, route intravenous; conditions: in vivo
[15] = Bioavailability in Sprague-Dawley rat at 10 mg/kg, po; type: ADME, organism-based; conditions: in vivo
[16] = tested on: Mus musculus; assay: Decrease in plasma glucose level in db/db mouse at 0.1 mg/kg, po; type: functional; set-up: scale not given: the % may be the effect or the level left
[17] = AUC (0-24 hrs) in Sprague-Dawley rat at 5 mg/kg, iv; type: ADME, organism-based; set-up: time < 24 hr, dose 5 mg/kg, route intravenous; conditions: plasma

| EC50 [2] | EC50 [4] | Structure (SMILES) | also measured |
| --- | --- | --- | --- |
| 0.55 nM | 4.9 nM | CCCO/N=C(\C)C(Cc1ccc(OCCc2nc(-c3ccccc3)oc2C)cc1)C(=O)O (stereo not given) |  |
| 28 nM | 11.7 nM | CCCO/N=C(\C)C(Cc1ccc(OCc2nc(-c3ccc(F)cc3)oc2C)cc1)C(=O)O (stereo not given) |  |
| 2.9 nM | 3.5 nM | C/C(=N\OCCF)C(Cc1ccc(OCCc2nc(-c3ccc(F)cc3)oc2C)cc1)C(=O)O (stereo not given) |  |
| 6.8 nM | 12 nM | CCO/N=C(\C)C(Cc1ccc(OCc2nc(-c3ccc(F)cc3)oc2C)cc1)C(=O)O (stereo not given) |  |
| 2.1 nM | 4 nM | CCCO/N=C(\C)C(Cc1ccc(OCCc2nc(-c3ccc(F)cc3)oc2C)cc1)C(=O)O (stereo not given) |  |
| 1 nM | 12 nM | CCO/N=C(\C)C(Cc1ccc(OCCc2nc(-c3ccccc3)oc2C)cc1)C(=O)O (stereo not given) |  |
| 3 nM | 11.5 nM | CCO/N=C(\C)C(Cc1ccc(OCCc2nc(-c3ccc(F)cc3)oc2C)cc1)C(=O)O (stereo not given) |  |
| 0.19 nM | 1.3 nM | CCCCO/N=C(\C)C(Cc1ccc(OCCc2nc(-c3ccccc3)oc2C)cc1)C(=O)O (stereo not given) |  |
| 7.7 nM | 23 nM | C/C(=N\OCCF)C(Cc1ccc(OCc2nc(-c3ccc(F)cc3)oc2C)cc1)C(=O)O (stereo not given) |  |

The next lines start with the compound.

| Structure (SMILES) | EC50 [2] | EC50 [4] | also measured |
| --- | --- | --- | --- |
| CCO[C@@H](Cc1ccc(OCCc2ccc(OS(C)(=O)=O)cc2)cc1)C(=O)O [TESAGLITAZAR] | 3530 nM | 9800 nM | Activity [1]: 38%; Activity [3]: 68% |
| CCO/N=C(\CC)C(Cc1ccc(OCCc2nc(-c3ccccc3)oc2C)cc1)C(=O)O (stereo not given) | 0.1 nM | 26 nM |  |
| CCO/N=C(\C)C(Cc1ccc(OCc2nc(C(C)C)oc2C)cc1)C(=O)O (stereo not given) | 48 nM | 1240 nM |  |
| CCO/N=C(\C)C(Cc1ccc(OCCc2nc(C(C)C)oc2C)cc1)C(=O)O (stereo not given) | 20 nM | 139 nM |  |
| CO/N=C(\C)C(Cc1ccc(OCCc2nc(-c3ccccc3)oc2C)cc1)C(=O)O (stereo not given) | 2.1 nM | 19 nM |  |
| CCO/N=C(\C)C(Cc1ccc(OCc2nc(-c3ccccc3)oc2C)cc1)C(=O)O (stereo not given) | 4 nM | 91 nM |  |
| CCCO/N=C(\C)C(Cc1ccc(OCc2nc(C(C)C)oc2C)cc1)C(=O)O (stereo not given) | 5 nM | 105 nM |  |
| CC/C(=N\OC)C(Cc1ccc(OCCc2nc(-c3ccccc3)oc2C)cc1)C(=O)O (stereo not given) | 0.31 nM | 32 nM |  |
| C/C(=N/OCc1ccc(F)cc1)C(Cc1ccc(OCCc2nc(-c3ccccc3)oc2C)cc1)C(=O)O (stereo not given) | 5 nM | 596 nM |  |
| C/C(=N\OCc1ccc(F)cc1)C(Cc1ccc(OCCc2nc(-c3ccccc3)oc2C)cc1)C(=O)O (stereo not given) | 0.54 nM | 10.6 nM |  |
| CCCO/N=C(\C)C(Cc1ccc(OCCc2nc(C(C)C)oc2C)cc1)C(=O)O (stereo not given) | 5.2 nM | 10 nM |  |
| CN(CCOc1ccc(CC2SC(=O)NC2=O)cc1)c1ccccn1 (stereo not given) [ROSIGLITAZONE] |  |  | Activity [5]: 65%; Activity [6]: 65% |
| C/C(=N\OCC1CC1)C(Cc1ccc(OCCc2nc(-c3ccccc3)oc2C)cc1)C(=O)O (stereo not given) | 0.36 nM | 3.1 nM |  |
| CCCO/N=C(\C)C(Cc1ccc(OCc2nc(-c3ccccc3)oc2C)cc1)C(=O)O (stereo not given) | 13 nM | 19 nM | Activity [1]: 41%; AUC(0-t) at 24 h [7]: 162 µg·h/mL; Tmax [8]: 0.5 h; half-life [9]: 8.05 h; Activity [10]: 43%; clearance [11]: 0.8 mL/min/kg; Activity [5]: 58%; Activity [3]: 56%; Cmax [12]: 22600 ng/mL; Activity [6]: 73%; Vd [13]: 0.329 L/kg; half-life [14]: 5.93 h; bioavailability [15]: 75.5%; Activity [16]: 8%; AUC(0-t) at 24 h [17]: 113 µg·h/mL |
| C/C(=N\OCC(C)C)C(Cc1ccc(OCCc2nc(-c3ccccc3)oc2C)cc1)C(=O)O (stereo not given) | 0.3 nM | 2.2 nM |  |
